Experimental data from patent US20150148551A1, “GENISTEIN FOR REDUCING LEVELS OF STORAGE COMPOUNDS IN THE TREATMENT AND/OR PREVENTION OF LYSOSOMAL STORAGE DISEASES (LSDS)” (3G THERAPEUTICS, INC., priority 2012, published 2015).

Assays:
SGSH = experiment: DNA microarray, SGSH expression in fibroblasts exposed to genistein; format: cell-based, human; conditions: for SGSH fold change Average: 48 h vs DMSO
Experimental: (§1) The experiments were conducted to characterise the transcriptomic profile of human fibroblast cells exposed to genistein, and in particular to determine the expression of genes encoding lysosomal enzymes involved in metabolism (i.e. synthesis and degradation) of organic substances. The absence or deficiency of these enzymes' activity is responsible for occurrence of various lysosomal storage diseases (LSD) (including MPS). The tested hypothesis assumed that genistein influences the expression of many genes, among which there are genes coding for enzymes required in metabolism of compounds, which are pathologically stored in LSD. The results provide important information regarding genistein action on the molecular level within the range of gene expression modulation by this substance. The experiment was conducted in biological quintuplicates. Human dermal fibroblasts (HDFa) were exposed in vitro for 1, 24 or 48 hours to: 30, 60 or 100 μM of genistein; 0.05% DMSO (K1); or were untreated (control cells) (K2), and total RNA was isolated and analysed.
(§2) Fibroblast cells were grown in Dulbecco (DMEM) medium supplemented with 10% fetal bovine serum (FBS) with the addition of 1% antibiotics and anti-fungal agents at 37° C. in humidified atmosphere of 5% CO2, until the required confluency was obtained.
(§3) To determine the effect of tested compound on the transcriptom of the fibroblast cells, the growth medium was replaced with fresh medium, either non-supplemented (0.05% DMSO), or containing genistein (30, 60 or 100 μM, in 0.05% DMSO). The exposure was done for 1, 24 or 48 hours.
(§4) Total RNA was isolated from fibroblasts using High Pure RNA Isolation Kit according to the protocol and then it was quantitatively evaluated using Quant-It™ RiboGreen® Assay Kit.
(§5) Biotinylated cRNA was prepared using Ambion Total PrepAmp Kit for Illumina arrays.
(§6) Standard hybridization and quantitative image analysis procedures—Illumina hybridization protocol and Illumina scanning protocol, were used.
(§7) Processing of the results was done during data definition, including: background correction (using background subtraction method), normalization (using quantile normalization algorithm with Illumina GenomeStudio software package: gene expression module version 1.9.0) and summarization (using method, which sums the values of signal intensities from a set of probes).

[1] = humans and animals; cited from earlier work
ABCA9 = experiment: DNA microarray, ABCA9 expression in fibroblasts exposed to genistein; format: cell-based, human; conditions: for ABCA9 fold change Average: 48 h vs DMSO
Experimental: as §1, §2, §3, §4, §5, §6, §7

ST3GAL6 = experiment: DNA microarray, ST3GAL6 expression in fibroblasts exposed to genistein; format: cell-based, human
Experimental: as §1, §2, §3, §4, §5, §6, §7

HEXA = experiment: DNA microarray, HEXA expression in fibroblasts exposed to genistein; format: cell-based, human; conditions: for HEXA fold change Average: 48 h vs DMSO
Experimental: as §1, §2, §3, §4, §5, §6, §7

FVT1 = experiment: DNA microarray, FVT1 expression in fibroblasts exposed to genistein; format: cell-based, human; conditions: for FVT1 fold change Average: 48 h vs DMSO
Experimental: as §1, §2, §3, §4, §5, §6, §7

CTSD = experiment: DNA microarray, CTSD expression in fibroblasts exposed to genistein; format: cell-based, human; conditions: for CTSD fold change Average: 48 h vs DMSO
Experimental: as §1, §2, §3, §4, §5, §6, §7

IDUA = experiment: DNA microarray, IDUA expression in fibroblasts exposed to genistein; format: cell-based, human; conditions: for IDUA fold change Average: 48 h vs DMSO
Experimental: as §1, §2, §3, §4, §5, §6, §7

[2] = tested on: fibroblasts from patients with MPS type I, IIIA and IIIB; conditions: cited from earlier work

Compound: O=c1c(-c2ccc(O)cc2)coc2cc(O)cc(O)c12 [genistein, 4′,5,7-trihydroxy-3-phenylchromen-4-one]
- SGSH fold change Average 1h30/1hK1 (SGSH; 30 μM, 1 h vs 0.05% DMSO): 1.0703 fold change
- SGSH fold change Average 1h60/1hK1 (SGSH; 60 μM, 1 h vs 0.05% DMSO): 1.065 fold change
- SGSH fold change Average (SGSH; 60 μM): 1.122 fold change
- SGSH fold change Average 1h100/1hK1 (SGSH; 100 μM, 1 h vs 0.05% DMSO): 1.07 fold change
- SGSH fold change Average (SGSH; 100 μM): 0.9299 fold change
- tolerability [1]: well-tolerated
- ABCA9 fold change Average 1h30/1hK1 (ABCA9; 30 μM, 1 h vs 0.05% DMSO): 1.0096 fold change
- ABCA9 fold change Average (ABCA9; 30 μM): 1.3825 fold change
- ABCA9 fold change Average 1h60/1hK1 (ABCA9; 60 μM, 1 h vs 0.05% DMSO): 1.129 fold change
- ABCA9 fold change Average 1h100/1hK1 (ABCA9; 100 μM, 1 h vs 0.05% DMSO): 0.9831 fold change
- ABCA9 fold change Average (ABCA9; 100 μM): 1.635 fold change
- ST3GAL6 fold change Average 1h30/1hK1 (ST3GAL6; 30 μM, 1 h vs 0.05% DMSO): 1.234 fold change
- ST3GAL6 fold change Average 24h30/24hK1 (ST3GAL6; 30 μM, 24 h vs 0.05% DMSO): 0.9878 fold change
- ST3GAL6 fold change Average 48h30/48hK1 (ST3GAL6; 30 μM, 48 h vs 0.05% DMSO): 1.015 fold change
- ST3GAL6 fold change Average 1h60/1hK1 (ST3GAL6; 60 μM, 1 h vs 0.05% DMSO): 1.072 fold change
- ST3GAL6 fold change Average 1h100/1hK1 (ST3GAL6; 100 μM, 1 h vs 0.05% DMSO): 1.064 fold change
- ST3GAL6 fold change Average 24h100/24hK1 (ST3GAL6; 100 μM, 24 h vs 0.05% DMSO): 0.7371 fold change
- ST3GAL6 fold change Average 48h100/48hK1 (ST3GAL6; 100 μM, 48 h vs 0.05% DMSO): 0.7409 fold change
- HEXA fold change Average 1h30/1hK1 (HEXA; 30 μM, 1 h vs 0.05% DMSO): 1.2226 fold change
- HEXA fold change Average (HEXA; 30 μM): 1.0817 fold change
- HEXA fold change Average 1h60/1hK1 (HEXA; 60 μM, 1 h vs 0.05% DMSO): 1.174 fold change
- HEXA fold change Average (HEXA; 60 μM): 1.474 fold change
- HEXA fold change Average 1h100/1hK1 (HEXA; 100 μM, 1 h vs 0.05% DMSO): 1.042 fold change
- HEXA fold change Average (HEXA; 100 μM): 1.621 fold change
- FVT1 fold change Average 1h30/1hK1 (FVT1; 30 μM, 1 h vs 0.05% DMSO): 1.0953 fold change
- FVT1 fold change Average (FVT1; 30 μM): 1.2441 fold change
- FVT1 fold change Average 1h60/1hK1 (FVT1; 60 μM, 1 h vs 0.05% DMSO): 1.137 fold change
- FVT1 fold change Average (FVT1; 60 μM): 1.603 fold change
- FVT1 fold change Average 1h100/1hK1 (FVT1; 100 μM, 1 h vs 0.05% DMSO): 1.035 fold change
- FVT1 fold change Average (FVT1; 100 μM): 1.422 fold change
- CTSD fold change Average 1h30/1hK1 (CTSD; 30 μM, 1 h vs 0.05% DMSO): 0.9734 fold change
- CTSD fold change Average (CTSD; 30 μM): 1.3322 fold change
- CTSD fold change Average 1h60/1hK1 (CTSD; 60 μM, 1 h vs 0.05% DMSO): 1.119 fold change
- CTSD fold change Average (CTSD; 60 μM): 1.302 fold change
- CTSD fold change Average 1h100/1hK1 (CTSD; 100 μM, 1 h vs 0.05% DMSO): 1.018 fold change
- CTSD fold change Average (CTSD; 100 μM): 1.939 fold change
- IDUA fold change Average 1h30/1hK1 (IDUA; 30 μM, 1 h vs 0.05% DMSO): 0.8853 fold change
- IDUA fold change Average (IDUA; 30 μM): 1.1407 fold change
- IDUA fold change Average 1h60/1hK1 (IDUA; 60 μM, 1 h vs 0.05% DMSO): 0.9788 fold change
- IDUA fold change Average (IDUA; 60 μM): 1.212 fold change
- IDUA fold change Average 1h100/1hK1 (IDUA; 100 μM, 1 h vs 0.05% DMSO): 0.9034 fold change
- IDUA fold change Average (IDUA; 100 μM): 1.309 fold change
- GAG synthesis [2]: reduces levels of GAG synthesis
- storage depositions in cells [2]: causes disappearance of the storage depositions in cells
